Test system: anterior ocular segment
Experiment: Test Example 7 (2)(c): ocular local toxicity, visual observation on the anterior ocular segment, 28 days instillation
Format: in vivo, Japanese white rabbits
Design: Cornea (opacity x area), numerical rating / Iris, numerical rating / Conjunctiva (A) redness of palpebral conjunctiva, numerical rating / Conjunctiva (B) edema of palpebral conjunctiva, numerical rating / Conjunctiva (C) redness of bulbar conjunctiva, numerical rating / Conjunctiva (D) nictitating membrane, numerical rating / Conjunctiva (E) discharge, numerical rating / Total numerical rating: scale not given here
Protocol: (2) Ocular local toxicity test in rabbits of 1.0% and 0.5% ophthalmic solutions of amosulalol hydrochloride by consecutive instillation for 28 days:
With 15 male Japanese white rabbits divided into 3 groups each consisting of 5 rabbits, 1.0% and 0.5% ophthalmic solutions of amosulalol hydrochloride as well as physiological saline as a control were applied in one drop (0.05 ml) per time to the right eye of each rabbit alone, four times a day at a regular interval of 2.5 hours, for 28 days consecutively with the left eye being left untreated.
(c) Visual observation on the anterior ocular segment; Based on the below-described criteria for assessment of ocular injuries (Gendai no Rinsho (Present-Day Clinics) Vol. 4, No. 4, pp. 227-289, 1970), numerical rating was performed on 1.0% and 0.5% ophthalmic solutions of amosulalol hydrochloride before instillation as well as on the day (Day 1) of initiating the instillation and on the 2nd, 4th, 7th, 14th, 21st, 28th days after initiating the instillation but each time after completion of the instillation and on the morning of the last instillation (29th day). With reference to the results of numerical rating, a numerical rating of not less than 1 as determined on either of the items was understood to be judged "injurious to the eye" while numerical ratings of 0 and 0.5 were considered "not injurious to the eye".
Criteria for assessment of ocular injuries:
Tables 5 and 6 show the results of the visual observation on the anterior ocular section, being specified above under Item (c), as obtained with 1.0% and 0.5% ophthalmic solutions of amosulalol hydrochloride, respectively, wherein each value given represents a mean for 5 cases.
In Tables 5 and 6, the numerical rating of cornea means the value obtained by multiplying a value in "(A) Degree of Opacity" by that of "(B) Area of opacity" in the above-described "Criteria for assessment of ocular injuries".

[1] = 0.5% solution, before instillation, mean of 5
[2] = 0.5% solution, day 1, mean of 5
[3] = 0.5% solution, day 2, mean of 5
[4] = 0.5% solution, day 4, mean of 5
[5] = 0.5% solution, day 7, mean of 5
[6] = 0.5% solution, day 14, mean of 5
[7] = 0.5% solution, day 21, mean of 5
[8] = 0.5% solution, day 28, mean of 5
[9] = 0.5% solution, day 29, mean of 5
[10] = 1.0% solution, before instillation, mean of 5
[11] = 1.0% solution, day 1, mean of 5
[12] = 1.0% solution, day 2, mean of 5
[13] = 1.0% solution, day 4, mean of 5
[14] = 1.0% solution, day 7, mean of 5
[15] = 1.0% solution, day 14, mean of 5
[16] = 1.0% solution, day 21, mean of 5
[17] = 1.0% solution, day 28, mean of 5
[18] = 1.0% solution, day 29, mean of 5

COc1ccccc1OCCNCC(O)c1ccc(C)c(S(N)(=O)=O)c1.Cl (centres unmarked) [amosulalol hydrochloride, 5-[1-hydroxy-2-[2-(2-methoxyphenoxy)ethylamino]ethyl]-2-methylbenzenesulfonamide hydrochloride]
Conjunctiva (A) redness of palpebral conjunctiva, numerical rating [1]: 0
Conjunctiva (B) edema of palpebral conjunctiva, numerical rating [1]: 0
Conjunctiva (C) redness of bulbar conjunctiva, numerical rating [1]: 0
Conjunctiva (D) nictitating membrane, numerical rating [1]: 0
Conjunctiva (E) discharge, numerical rating [1]: 0
Cornea (opacity x area), numerical rating [1]: 0
Iris, numerical rating [1]: 0
Total numerical rating [1]: 0
Conjunctiva (A) redness of palpebral conjunctiva, numerical rating [2]: 0
Conjunctiva (B) edema of palpebral conjunctiva, numerical rating [2]: 0
Conjunctiva (C) redness of bulbar conjunctiva, numerical rating [2]: 0.4
Conjunctiva (D) nictitating membrane, numerical rating [2]: 0
Conjunctiva (E) discharge, numerical rating [2]: 0
Cornea (opacity x area), numerical rating [2]: 0
Iris, numerical rating [2]: 0
Total numerical rating [2]: 0.4
Conjunctiva (A) redness of palpebral conjunctiva, numerical rating [3]: 0
Conjunctiva (B) edema of palpebral conjunctiva, numerical rating [3]: 0
Conjunctiva (C) redness of bulbar conjunctiva, numerical rating [3]: 0.4
Conjunctiva (D) nictitating membrane, numerical rating [3]: 0
Conjunctiva (E) discharge, numerical rating [3]: 0
Cornea (opacity x area), numerical rating [3]: 0
Iris, numerical rating [3]: 0
Total numerical rating [3]: 0.4
Conjunctiva (A) redness of palpebral conjunctiva, numerical rating [4]: 0
Conjunctiva (B) edema of palpebral conjunctiva, numerical rating [4]: 0
Conjunctiva (C) redness of bulbar conjunctiva, numerical rating [4]: 0.2
Conjunctiva (D) nictitating membrane, numerical rating [4]: 0
Conjunctiva (E) discharge, numerical rating [4]: 0
Cornea (opacity x area), numerical rating [4]: 0
Iris, numerical rating [4]: 0
Total numerical rating [4]: 0.2
Conjunctiva (A) redness of palpebral conjunctiva, numerical rating [5]: 0
Conjunctiva (B) edema of palpebral conjunctiva, numerical rating [5]: 0
Conjunctiva (C) redness of bulbar conjunctiva, numerical rating [5]: 0.2
Conjunctiva (D) nictitating membrane, numerical rating [5]: 0
Conjunctiva (E) discharge, numerical rating [5]: 0
Cornea (opacity x area), numerical rating [5]: 0
Iris, numerical rating [5]: 0
Total numerical rating [5]: 0.2
Conjunctiva (A) redness of palpebral conjunctiva, numerical rating [6]: 0
Conjunctiva (B) edema of palpebral conjunctiva, numerical rating [6]: 0
Conjunctiva (C) redness of bulbar conjunctiva, numerical rating [6]: 0.2
Conjunctiva (D) nictitating membrane, numerical rating [6]: 0
Conjunctiva (E) discharge, numerical rating [6]: 0
Cornea (opacity x area), numerical rating [6]: 0
Iris, numerical rating [6]: 0
Total numerical rating [6]: 0.2
Conjunctiva (A) redness of palpebral conjunctiva, numerical rating [7]: 0
Conjunctiva (B) edema of palpebral conjunctiva, numerical rating [7]: 0
Conjunctiva (C) redness of bulbar conjunctiva, numerical rating [7]: 0.1
Conjunctiva (D) nictitating membrane, numerical rating [7]: 0
Conjunctiva (E) discharge, numerical rating [7]: 0
Cornea (opacity x area), numerical rating [7]: 0
Iris, numerical rating [7]: 0
Total numerical rating [7]: 0.1
Conjunctiva (A) redness of palpebral conjunctiva, numerical rating [8]: 0
Conjunctiva (B) edema of palpebral conjunctiva, numerical rating [8]: 0
Conjunctiva (C) redness of bulbar conjunctiva, numerical rating [8]: 0.1
Conjunctiva (D) nictitating membrane, numerical rating [8]: 0
Conjunctiva (E) discharge, numerical rating [8]: 0
Cornea (opacity x area), numerical rating [8]: 0
Iris, numerical rating [8]: 0
Total numerical rating [8]: 0.1
Conjunctiva (A) redness of palpebral conjunctiva, numerical rating [9]: 0
Conjunctiva (B) edema of palpebral conjunctiva, numerical rating [9]: 0
Conjunctiva (C) redness of bulbar conjunctiva, numerical rating [9]: 0
Conjunctiva (D) nictitating membrane, numerical rating [9]: 0
Conjunctiva (E) discharge, numerical rating [9]: 0
Cornea (opacity x area), numerical rating [9]: 0
Iris, numerical rating [9]: 0
Total numerical rating [9]: 0
visual observation of the anterior ocular segment (1.0% and 0.5% ophthalmic solutions, 4 times a day, 28 days): no abnormality
Conjunctiva (A) redness of palpebral conjunctiva, numerical rating [10]: 0
Conjunctiva (B) edema of palpebral conjunctiva, numerical rating [10]: 0
Conjunctiva (C) redness of bulbar conjunctiva, numerical rating [10]: 0
Conjunctiva (D) nictitating membrane, numerical rating [10]: 0
Conjunctiva (E) discharge, numerical rating [10]: 0
Cornea (opacity x area), numerical rating [10]: 0
Iris, numerical rating [10]: 0
Total numerical rating [10]: 0
Conjunctiva (A) redness of palpebral conjunctiva, numerical rating [11]: 0.2
Conjunctiva (B) edema of palpebral conjunctiva, numerical rating [11]: 0
Conjunctiva (C) redness of bulbar conjunctiva, numerical rating [11]: 0.5
Conjunctiva (D) nictitating membrane, numerical rating [11]: 0
Conjunctiva (E) discharge, numerical rating [11]: 0
Cornea (opacity x area), numerical rating [11]: 0
Iris, numerical rating [11]: 0
Total numerical rating [11]: 0.7
Conjunctiva (A) redness of palpebral conjunctiva, numerical rating [12]: 0.2
Conjunctiva (B) edema of palpebral conjunctiva, numerical rating [12]: 0
Conjunctiva (C) redness of bulbar conjunctiva, numerical rating [12]: 0.5
Conjunctiva (D) nictitating membrane, numerical rating [12]: 0
Conjunctiva (E) discharge, numerical rating [12]: 0
Cornea (opacity x area), numerical rating [12]: 0
Iris, numerical rating [12]: 0
Total numerical rating [12]: 0.7
Conjunctiva (A) redness of palpebral conjunctiva, numerical rating [13]: 0.1
Conjunctiva (B) edema of palpebral conjunctiva, numerical rating [13]: 0
Conjunctiva (C) redness of bulbar conjunctiva, numerical rating [13]: 0.5
Conjunctiva (D) nictitating membrane, numerical rating [13]: 0
Conjunctiva (E) discharge, numerical rating [13]: 0
Cornea (opacity x area), numerical rating [13]: 0
Iris, numerical rating [13]: 0
Total numerical rating [13]: 0.6
Conjunctiva (A) redness of palpebral conjunctiva, numerical rating [14]: 0.1
Conjunctiva (B) edema of palpebral conjunctiva, numerical rating [14]: 0
Conjunctiva (C) redness of bulbar conjunctiva, numerical rating [14]: 0.3
Conjunctiva (D) nictitating membrane, numerical rating [14]: 0
Conjunctiva (E) discharge, numerical rating [14]: 0
Cornea (opacity x area), numerical rating [14]: 0
Iris, numerical rating [14]: 0
Total numerical rating [14]: 0.4
Conjunctiva (A) redness of palpebral conjunctiva, numerical rating [15]: 0.1
Conjunctiva (B) edema of palpebral conjunctiva, numerical rating [15]: 0
Conjunctiva (C) redness of bulbar conjunctiva, numerical rating [15]: 0.3
Conjunctiva (D) nictitating membrane, numerical rating [15]: 0
Conjunctiva (E) discharge, numerical rating [15]: 0
Cornea (opacity x area), numerical rating [15]: 0
Iris, numerical rating [15]: 0
Total numerical rating [15]: 0.4
Conjunctiva (A) redness of palpebral conjunctiva, numerical rating [16]: 0.1
Conjunctiva (B) edema of palpebral conjunctiva, numerical rating [16]: 0
Conjunctiva (C) redness of bulbar conjunctiva, numerical rating [16]: 0.3
Conjunctiva (D) nictitating membrane, numerical rating [16]: 0
Conjunctiva (E) discharge, numerical rating [16]: 0
Cornea (opacity x area), numerical rating [16]: 0
Iris, numerical rating [16]: 0
Total numerical rating [16]: 0.4
Conjunctiva (A) redness of palpebral conjunctiva, numerical rating [17]: 0.1
Conjunctiva (B) edema of palpebral conjunctiva, numerical rating [17]: 0
Conjunctiva (C) redness of bulbar conjunctiva, numerical rating [17]: 0.3
Conjunctiva (D) nictitating membrane, numerical rating [17]: 0
Conjunctiva (E) discharge, numerical rating [17]: 0
Cornea (opacity x area), numerical rating [17]: 0
Iris, numerical rating [17]: 0
Total numerical rating [17]: 0.4
Conjunctiva (A) redness of palpebral conjunctiva, numerical rating [18]: 0
Conjunctiva (B) edema of palpebral conjunctiva, numerical rating [18]: 0
Conjunctiva (C) redness of bulbar conjunctiva, numerical rating [18]: 0
Conjunctiva (D) nictitating membrane, numerical rating [18]: 0
Conjunctiva (E) discharge, numerical rating [18]: 0
Cornea (opacity x area), numerical rating [18]: 0
Iris, numerical rating [18]: 0
Total numerical rating [18]: 0
side effects such as ocular irritation (ophthalmic solution): free from side effects such as ocular irritation

From US5663205A, “Pharmaceutical composition for use in glaucoma treatment” (Senju Pharmaceutical Co. Ltd., priority 1992, dated 1997)
